Measurements taken from patent US20260049078A1, “DIFLUORO- AND TRIFLUORO-ACETYL HYDRAZIDES AS SELECTIVE HDAC6 INHIBITORS” (ITALFARMACO S.P.A., priority 2022, published 2026).

Columns and labels:
zHDAC6-CD2 wt = zHDAC6-CD2 wt (Danio rerio (Zebrafish) (Brachydanio rerio), UniProt F8W4B7); test: Isolation of long-lived/tight complex (spin column chromatography with LC-HRMS); format: binding; conditions: zHDAC6-CD2 wt 1 μM, compound 5 μM, 6 hours, Bio-Spin P-6
Method: Rapid chromatography on spin columns coupled to LC-HRMS was used to attempt the isolation of long-lived/tight complexes between HDAC6 and examples 1 and 1-A. zHDAC6-CD2 wt (1 μM) was incubated with 1 (5 μM) or 1-A (also 5 μM) as described before for 6 hours. An aliquot (60 μL) was loaded on a Bio-Spin P-6 Gel Column (Bio-Rad) that had been equilibrated with assay buffer in order to separate the HDAC6-inhibitors complexes from free compounds. After centrifugation to elute the initial fraction containing most of the enzyme, ten 200 μL aliquots were applied and eluted by centrifugation to collect the low molecular weight (free) compounds. Aliquots of the fractions were subjected to LC-HRMS analysis (as described above) for identification and quantitation of 1 and its derivatives.

SH-SY5Y cells = test: In vitro α-tubulin acetylation in undifferentiated SH-SY5Y cells; format: cell-based; conditions: overnight, @1uM
Method: SH-SY5Y cells (ATCC, cod. CRL-2266) are plated in optical optimized 96-well black plates (Perkin Elmer, cod. 6055302) at 5000 cells/well in 100 μl/well of growth medium (DMEM/F12 (1:1)+10 mM hepes+100 units/mL of penicillin+100 μg/mL of streptomycin+10% of inactivated Foetal calf serum (FCS, Hyclone)).
After 24 h of seeding, cells are incubated overnight with the selected molecules at 0.1-1-10 μM. ACY1083 and Tubastatin A, at the same doses, are tested as positive controls of α-Tubulin acetylation, while untreated cells are incubated with 0.01% DMSO and indicated as CTRL DMSO.
At the end of the incubation, cells are fixed adding 100 μL/well of formaldehyde 8% in PBS (final formaldehyde concentration 4% in 200 μL/well) directly in the 100 μL/well of medium, for 30 min at RT. The fixing solution is carefully removed, and wells are washed twice with PBS for 10 min each. Fixed cells are kept in PBS at 4° C. until staining.
The day of the staining experiment, the fixed cells are incubated 60 min with the blocking buffer (PBS with 5% FCS+0.3% Triton™ X-100). While blocking, primary antibodies are prepared by diluting 1:200 the α-Tubulin Alexa Fluor 488 Conjugate (Cell Signaling, cod. 5063) antibody and 1:50 Acetyl-α-Tubulin Alexa Fluor 647 Conjugate (Cell Signaling, cod. 81502) antibody in the Antibody Dilution Buffer (PBS with 1% BSA+0.3% Triton™ X-100). Once the blocking solution is aspirated, the diluted primary antibodies are applied and incubated overnight at 4° C. The next day, cells are rinsed twice with PBS (10 min each), incubated 5 min with 300 nM DAPI in PBS, and then rinsed twice with PBS (10 min each). For each treatment, 3 wells are stained.
Images of the stained cells are acquired by means of the IN Cell Analyzer 2500 HS Instrument, using: far red channel for Acetyl-α-Tubulin staining (exposure 0.02 sec), green channel for α-Tubulin staining (exposure 0.02 sec), and blue channel for DAPI (nuclei) staining. For each well, 10 images are acquired.
Images of stained cells are analysed with the InCarta software (Molecular Devices) for obtaining fluorescence intensity considering whole cells. For each treatment, mean values of Cell intensity—Bckg (Cell), for both staining, are obtained using the InCarta raw data by FOV (Field of View). Results are expressed as fold increase of the ratio of acetylated tubulin and total tubulin towards control (CTRL DMSO).

[1] = test system: human B cell precursor leukemia 697; test: In vitro α-tubulin acetylation in 697 cell line; format: cell-based; conditions: Homo sapiens, B-cell, 16 h; read-out: TubAc 697 cells EC50
Method: The in vitro α-tubulin acetylation was evaluated on human B cell precursor leukemia 697.
The 697 cells were maintained in RPMI Medium 1640 (Gibco, cat: 21875-034) supplemented with 10 mM HEPES (Gibco, cat: 15630-080), Pen-Strep (Penicillin 100 U/ml, Streptomycin 100 μg/ml, Gibco, cat: 15140-122) and 10% fetal bovine serum (Gibco, cat: 10270-106).
The cells were plated in 12-well plates (Costar, cat: 3512) at the density of 5.5×10^5 cells/ml.
Serial dilutions of test compounds in DMSO were prepared using 20 mM stock solutions to obtain 8 doses 200× concentrated in respect to final doses (2.7-100000 nM). Then the DMSO solutions were diluted 10× in culture medium to obtain 20× concentrated solutions which were used for cells treatment (125 μl of medium solutions were added to 2.375 ml of cells suspension). The final DMSO content was set as 0.5%. The plates were incubated at 37° C., 5% CO2 for 16 hours.
At the end of the incubation period, the cells were harvested and centrifuged for 5 minutes at 200×g and washed with 0.9% NaCl at 4° C. The resulting pellet was treated for 30 minutes at 4° C. with 100 μl Complete Lysis-M buffer containing protease inhibitors (Complete Lysis-M Roche+Complete Tablets, Mini Easypack, cat: 4719956001) and phosphatase inhibitor cocktails (PhosStop Easypack, Roche, cat: 4906837001) and then centrifuged 10 minutes at 18213×g. The protein concentration in each supernatant was determined using BCA Protein Assay Kit (Pierce, cat: 23227). The samples were diluted in PBS 1× to obtain 2 μg/ml concentration and coated in MaxiSorp 96-well plates (Nunc, cat: 442404). The plates were incubated overnight at room temperature.
Plates were washed twice with Wash Buffer (PBS 1×+0.005% tween 20) and saturated for 1 hour at room temperature with 300 μL of 1×PBS containing 10% FBS. After washing twice with Wash Buffer, the plates were incubated for 2 hours at room temperature in the presence of 100 μl/well either anti-acetylated-α-tubulin antibody (Monoclonal Anti-Tubulin, Acetylated antibody produced in mouse, Sigma-Aldrich, cat: T6793) or total anti-α-tubulin antibody (Monoclonal Anti-α-Tubulin produced in mouse, Sigma-Aldrich, cat: T6074) diluted 1:1000 in 1×PBS containing 10% FBS. Following 5 washing cycles with Wash Buffer the secondary antibody conjugated with the enzyme HRP (Goat anti-Mouse IgG, IgM, IgA (H+L), stock concentration 0.5 mg/ml, Thermo Fisher Scientific, cat: A10668), diluted 1:1000 in 1×PBS+10% FBS was added at the volume of 100 μl/well. After two hours of incubation at room temperature the plates were washed 4 times with Wash Buffer, then 100 μl/well of TMB substrate (TMB substrate kit, Thermo Fisher Scientific, cat: 34021) was added for 10 minutes at room temperature in the dark. The reaction was stopped by adding 50 μl of 2M H2SO4. The plates were read in BioTek Synergy H1 multimode microplate reader at a wavelength of 450 nm.
The measured absorbance was corrected by subtracting the mean of blank values (samples without the primary antibody). The absorbance ratios of acetyl to total tubulin assays were calculated and normalized to the reference compound (positive control) 4 parameter logistic curve, where 0% is the fitted bottom and 100% is the fitted top of the curve. The results are expressed as relative EC50.

recombinant human HDAC1 = recombinant human HDAC1 (Homo sapiens (Human), UniProt Q13547); test: Enzyme inhibitory activity assay on HDAC1; format: biochemical; conditions: 120 minutes preincubation at 25° C.
recombinant human HDAC1, sequence (Q13547 whole entry): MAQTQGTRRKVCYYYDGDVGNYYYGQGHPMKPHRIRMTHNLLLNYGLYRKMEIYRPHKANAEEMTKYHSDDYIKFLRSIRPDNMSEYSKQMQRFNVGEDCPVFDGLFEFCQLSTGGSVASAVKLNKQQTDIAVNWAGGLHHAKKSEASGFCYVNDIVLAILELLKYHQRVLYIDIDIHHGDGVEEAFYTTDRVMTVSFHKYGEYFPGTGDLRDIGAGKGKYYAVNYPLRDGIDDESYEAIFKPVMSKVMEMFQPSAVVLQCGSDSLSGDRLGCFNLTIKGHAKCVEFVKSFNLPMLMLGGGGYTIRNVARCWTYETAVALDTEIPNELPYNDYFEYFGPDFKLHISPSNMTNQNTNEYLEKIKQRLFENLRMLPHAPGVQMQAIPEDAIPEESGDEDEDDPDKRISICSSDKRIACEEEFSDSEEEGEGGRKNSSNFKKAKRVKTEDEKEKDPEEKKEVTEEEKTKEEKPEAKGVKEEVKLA
Method: (§1) For each test compound, 100× concentrated DMSO solutions at 8 doses were prepared and then diluted in assay buffer (25 mM Tris-HCl, pH 8, 130 mM NaCl, 0.05% Tween-20, 10% Glycerol) to obtain 5× concentrated solutions in relation to the final concentrations (typical final concentration range—6.4-200000 nM or 0.18-50000 nM, final DMSO content—1%). Then 10 μL solution of each test compound concentration were placed on a 96-well plate in triplicate and 15 μL of 3.33× concentrated enzyme solution in the assay buffer containing 3.33× concentrated BSA (final BSA concentration 1 mg/mL) and, in case of HDAC6, 3.33× concentrated TCEP (final TCEP concentration—200 μM) were added to each well. After a period of preincubation at 25° C. (30 minutes for HDAC6 and 120 minutes for HDAC1), 25 μL of solution containing the substrate were added. As substrate, FLUOR DE LYS® deacetylase substrate (Enzo Life Sciences, cat: BML-KI104, FdL), FLUOR DE LYS®-Green substrate (Enzo Life Sciences, cat: BML-KI572, FdL_G) or Boc-Lys(Tfa)-AMC (Bachem, cat: 4060676.005, Tfal)—2× concentrated solution in assay buffer were used. Following a reaction period (30 minutes at 25° C.), 50 μL of the development solution consisting of concentrate FLUOR DE LYS® developer I (Enzo Life Sciences, ca: BML-KI105), diluted 200 times in buffer (50 mM Tris-HCl, pH 8, 137 mM NaCl, 2.7 mM KCl, 1 mM MgCl2) plus 2 μM TSA was added and, after 25 minutes at room temperature in the dark, using the Victor 1420 Multilabel Counter Perkin Elmer Wallac instrument, the fluorescence reading was carried out (excitation/emission: 485/535 nM—Fluor de Lys Green, 355/460 nM—Tfal, Fluor de Lys).
(§2) Enzymatic activity on recombinant human HDAC6 and HDAC1 was evaluated (Table 2) for each synthesized compound.

recombinant human HDAC6 = recombinant human HDAC6 (Homo sapiens (Human), UniProt Q9UBN7); test: Enzyme inhibitory activity assay on HDAC6; format: biochemical; conditions: 30 minutes preincubation at 25° C.
recombinant human HDAC6, sequence (Q9UBN7 whole entry): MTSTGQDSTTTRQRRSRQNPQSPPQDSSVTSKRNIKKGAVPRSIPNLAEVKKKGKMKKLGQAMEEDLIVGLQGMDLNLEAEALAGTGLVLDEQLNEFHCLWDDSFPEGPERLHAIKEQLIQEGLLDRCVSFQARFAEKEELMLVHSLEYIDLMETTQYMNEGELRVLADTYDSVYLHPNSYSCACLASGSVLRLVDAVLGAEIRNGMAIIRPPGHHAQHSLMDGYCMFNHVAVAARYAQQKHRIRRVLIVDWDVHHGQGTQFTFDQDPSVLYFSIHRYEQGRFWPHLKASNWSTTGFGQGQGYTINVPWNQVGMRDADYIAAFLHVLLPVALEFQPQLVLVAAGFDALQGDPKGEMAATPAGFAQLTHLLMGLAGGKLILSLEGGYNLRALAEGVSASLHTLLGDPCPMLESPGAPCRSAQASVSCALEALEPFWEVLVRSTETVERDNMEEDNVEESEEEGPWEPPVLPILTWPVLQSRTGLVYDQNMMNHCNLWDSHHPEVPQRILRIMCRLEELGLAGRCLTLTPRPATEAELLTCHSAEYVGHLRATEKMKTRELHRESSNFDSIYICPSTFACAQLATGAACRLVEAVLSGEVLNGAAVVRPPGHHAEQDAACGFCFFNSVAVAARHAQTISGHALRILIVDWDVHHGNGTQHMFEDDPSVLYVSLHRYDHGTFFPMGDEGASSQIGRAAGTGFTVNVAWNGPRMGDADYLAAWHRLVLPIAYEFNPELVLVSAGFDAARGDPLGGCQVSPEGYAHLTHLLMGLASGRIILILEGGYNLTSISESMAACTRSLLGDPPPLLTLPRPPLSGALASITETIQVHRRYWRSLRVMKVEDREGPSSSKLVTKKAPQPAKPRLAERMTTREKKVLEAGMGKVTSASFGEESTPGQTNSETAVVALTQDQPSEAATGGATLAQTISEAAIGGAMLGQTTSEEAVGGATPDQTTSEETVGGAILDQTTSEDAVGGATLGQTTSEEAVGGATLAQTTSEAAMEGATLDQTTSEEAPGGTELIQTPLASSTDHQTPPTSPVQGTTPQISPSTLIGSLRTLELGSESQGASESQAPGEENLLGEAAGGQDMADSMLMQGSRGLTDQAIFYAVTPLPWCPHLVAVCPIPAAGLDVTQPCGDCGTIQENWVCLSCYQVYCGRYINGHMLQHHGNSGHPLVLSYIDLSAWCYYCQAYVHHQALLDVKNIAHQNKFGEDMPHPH
Method: as §1, §2

zHDAC6-CD2 wt, sequence (F8W4B7 entry or part of it del 1-439/del 799-1081 limits assumed): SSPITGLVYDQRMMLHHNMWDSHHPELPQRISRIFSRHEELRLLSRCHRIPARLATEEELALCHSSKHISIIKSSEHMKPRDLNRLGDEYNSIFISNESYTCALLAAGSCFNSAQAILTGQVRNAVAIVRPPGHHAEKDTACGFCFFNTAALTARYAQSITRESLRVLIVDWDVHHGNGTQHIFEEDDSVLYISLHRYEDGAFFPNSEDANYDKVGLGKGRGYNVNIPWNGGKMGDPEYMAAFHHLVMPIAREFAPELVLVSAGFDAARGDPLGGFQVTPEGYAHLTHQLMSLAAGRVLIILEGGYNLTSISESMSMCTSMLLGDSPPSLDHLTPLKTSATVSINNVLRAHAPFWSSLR

co-elution with the enzyme (fraction 1) (zHDAC6-CD2 wt) | EC50 [1] [nM] | IC50 (recombinant human HDAC1) [nM] | IC50 (recombinant human HDAC6) [nM] | SMILES | TubAc SH-SY5Y cells fold increase of the ratio of acetylated tubulin and total tubulin towards control (SH-SY5Y cells) [fold]
co-elutes with the enzyme |  |  |  | O=C(NNC(=O)C(F)F)c1ccc(Cn2cc(-c3ccc(NC4=NCCN4)cc3)nn2)cc1 [Compound 1, N′-(2,2-difluoroacetyl)-4-((4-(4-((4,5-dihydro-1H-imidazol-2-yl)amino)phenyl)-1H-1,2,3-triazol-1-yl)methyl)benzohydrazide] | 
 | 320 | > 100000 | 14 | CC(c1ccc(-c2nnc(C(F)F)o2)cn1)n1cc(-c2ccc(N)nc2)nn1 (centres unmarked) [Compound 39-A] | 6.5
